Consider 22 compounds from US20230279016A1, “Tetrahydropyrazolopyrimidines and Related Analogs for Inhibiting YAP/TAZ-TEAD” (THE KATHOLIEKE UNIVERSITEIT LEUVEN, priority 2021, published 2023).

What all share (assay type): cell-based
Test [1] relates to YAP/TAZ-TEAD transcription. In words: Reporter gene assay for measuring the inhibition of YAP/TAZ-TEAD transcription (TEAD-responsive element luciferase reporter in Hek293T cells). The following applies: Hek293T cells transiently transfected with TEAD-responsive element luciferase reporter, 24 hours incubation. The method in brief:
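Hek293T cells transiently transfected with TEAD-responsive luciferase reporter, exposed to compound for 24 h at 37° C/5% CO2, then read by luminescence. Percent inhibition normalized to vehicle (0%) and positive control inhibitor (100%); EC50 reported as activity ranges.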
(In a reporter assay the amount or activity of a reporter protein is the signal.)

In test [2] the test system is NCI-H226 mesothelioma cell line. In words: Mesothelioma cell line proliferation assay, NCI-H226. As to conditions: NCI-H226, 6 days with compound, cell viability by ATPlite. Here is the method: (§1) Mesothelioma cell lines, NCI-H226 and NCI-H2052 (all sourced from the ATCC cell culture collection) are plated in 96-well plates (Corning® 96 Well White Polystyrene Microplate clear flat bottom, white polystyrene (TC-Treated)), at 1500 cells/well in full medium (RPMI 1640 ATCC modification with L-glutamine, HEPES, Phenol Red, Sodium Pyruvate, High glucose, Low sodium bicarbonate and 10% fetal bovine serum). Cells are incubated overnight at 37° C. in an incubator with 5% CO2. Then compounds, dissolved in DMSO, are added in dose-response. Cells are incubated with compound dilutions for another 6 days at 37° C. in an incubator with 5% CO2. Cell viability is quantitated using the ATPlite kit (Perkin-Elmer) and the luminescence is read-out using an Envision instrument (Perkin-Elmer). The amount of relative light units produced using the ATPlite kit is used to calculated percent of inhibition.
(§2) The activities of example compounds tested are depicted in the table below. The activity ranges A, B and C refer to EC50 values in the mesothelioma cell line proliferation assay as described as follows: “A”: EC50 <1 μM; “B” : 1 μM EC50 ≤10 μM and “C” : EC50 >10 μM. NT: not tested.
In general terms: In ATP-based viability assays light output follows the ATP content of the culture.

The test system of test [3] is NCI-H2052 mesothelioma cell line. In words: Mesothelioma cell line proliferation assay, NCI-H2052. The following applies: NCI-H2052, 6 days with compound, cell viability by ATPlite. Here is the method: as §1, §2

The term EC50 denotes the concentration needed to bring the measured effect to its halfway point. In the case of `C=CC(=O)NCC1CN(c2ccc(C(C)C)cc2)c2ccnn2C1` (stereo not drawn) [Cpd. No. 013, N-((4-(4-isopropylphenyl)-4,5,6,7-tetrahydropyrazolo[1,5-a]pyrimidin-6-yl)methyl)acrylamide], the EC50 in test [1] (Homo sapiens, HEK-293T, 24 h) is under 1 µM; in test [2] (Homo sapiens, NCI-H226, 144 h) it was under 1 µM; in test [3] (Homo sapiens, NCI-H2052, 144 h) it was under 1 µM.

Consider `C=CC(=O)NCC1CN(c2ccc(C(F)(F)F)cc2)c2c(Br)cnn2C1` (stereo not drawn) [Cpd. No. 058, N-((3-bromo-4-(4-(trifluoromethyl)phenyl)-4,5,6,7-tetrahydropyrazolo[1,5-a]pyrimidin-6-yl)-methyl)acrylamide], for which the 50% effective concentration (EC50) in test [1] (Homo sapiens, HEK-293T, 24 h) is under 1 µM; in test [2] (Homo sapiens, NCI-H226, 144 h), under 1 µM; in test [3] (Homo sapiens, NCI-H2052, 144 h), 1 to 10 µM.

For the compound `C=CC(=O)NCC1CN(c2ccc(C(F)(F)F)nc2)c2ccnn2C1` (stereo not drawn) [Cpd. No. 007, N-((4-(6-(trifluoromethyl)pyridin-3-yl)-4,5,6,7-tetrahydropyrazolo[1,5-a]pyrimidin-6-yl)methyl)acrylamide], the EC50 in test [1] (Homo sapiens, HEK-293T, 24 h) is under 1 µM; in test [2] (Homo sapiens, NCI-H226, 144 h), over 10 µM; in test [3] (Homo sapiens, NCI-H2052, 144 h), over 10 µM.

Regarding `C=CC(=O)NCC1CN(c2ccc(C3CC3)cc2)c2ccnn2C1` (single isomer, unassigned) [Cpd. No. 022-En1, (R)- or (S)-N-((4-(4-cyclopropylphenyl)-4,5,6,7-tetrahydropyrazolo[1,5-a]pyrimidin-6-yl)methyl)acrylamide], the concentration giving a half-maximal response (EC50) in test [1] (Homo sapiens, HEK-293T, 24 h) is under 1 µM; in test [2] (Homo sapiens, NCI-H226, 144 h), under 1 µM; in test [3], under 1 µM.

For the compound `C=CC(=O)NCC1CN(c2ccc(OC(F)F)cc2)c2ccnn2C1` (single isomer, unassigned) [Cpd. No. 012-En2, (R)- or (S)-N-((4-(4-(difluoromethoxy)phenyl)-4,5,6,7-tetrahydropyrazolo[1,5-a]pyrimidin-6-yl)methyl)acrylamide], the EC50 in test [1] is under 1 µM; in test [2] it was under 1 µM; in test [3], over 10 µM.

Take `C=CC(=O)NCC1CN(c2ccc(OC(F)(F)F)cc2)c2ccnn2C1` (single isomer, unassigned) [Cpd. No. 011-En1, (R)- or (S)-N-((4-(4-(trifluoromethoxy)phenyl)-4,5,6,7-tetrahydropyrazolo[1,5-a]pyrimidin-6-yl)methyl)acrylamide]: the EC50 in test [1], in test [2] and in test [3] was under 1 µM each time.

Turning to `C=CC(=O)NCC1CN(c2ccc(C(F)(F)F)cn2)c2ccnn2C1` (single isomer, unassigned) [Cpd. No. 008-En1, (R)- or (S)-N-((4-(5-(trifluoromethyl)pyridin-2-yl)-4,5,6,7-tetrahydropyrazolo[1,5-a]pyrimidin-6-yl)methyl)acrylamide], the EC50 was under 1 µM in test [1] (Homo sapiens, HEK-293T, 24 h); under 1 µM in test [2] (Homo sapiens, NCI-H226, 144 h); under 1 µM in test [3] (Homo sapiens, NCI-H2052, 144 h).

On to `FC(F)(F)c1ccc(N2CC(C3CC(Br)=NO3)Cn3nccc32)cc1` (single isomer, unassigned) [Cpd. No. 086-Dia1, 3-bromo-5-(4-(4-(trifluoromethyl)phenyl)-4,5,6,7-tetrahydropyrazolo[1,5-a]pyrimidin-6-yl)-4,5-dihydroisoxazole], for which the EC50 in test [1] (Homo sapiens, HEK-293T, 24 h) was under 1 µM; in test [2] (Homo sapiens, NCI-H226, 144 h) it was under 1 µM; in test [3] (Homo sapiens, NCI-H2052, 144 h) it was under 1 µM.

Take `C=CC(=O)NCC1Cc2nn(C)cc2N(c2ccc(OC(F)(F)F)cc2)C1` (stereo not drawn) [Cpd. No. 071, N-((2-methyl-4-(4-(trifluoromethoxy)phenyl)-4,5,6,7-tetrahydro-2H-pyrazolo[4,3-b]pyridin-6-yl)methyl)acrylamide]: the EC50 in test [1] (Homo sapiens, HEK-293T, 24 h) was under 1 µM; in test [2] (Homo sapiens, NCI-H226, 144 h), under 1 µM; in test [3] (Homo sapiens, NCI-H2052, 144 h) it was under 1 µM.

Turning to `C=CC(=O)NCC1CN(c2ccc(S(F)(F)(F)(F)F)cc2)c2ccnn2C1` (single isomer, unassigned) [Cpd. No. 023-En1, (R)- or (S)-N-((4-(4-(pentafluoro-l6-sulfaneyl)phenyl)-4,5,6,7-tetrahydropyrazolo[1,5-a]pyrimidin-6-yl)methyl)acrylamide], the EC50 in test [1], in test [2] and in test [3] was under 1 µM throughout.

In the case of `C=CC(=O)NCC1CN(c2ccc(C(F)(F)F)cc2)c2cc(C)nn2C1` (stereo not drawn) [Cpd. No. 029, N-((2-methyl-4-(4-(trifluoromethyl)phenyl)-4,5,6,7-tetrahydropyrazolo[1,5-a]pyrimidin-6-yl)methyl)acrylamide], the concentration giving a half-maximal response (EC50) in test [1] (Homo sapiens, HEK-293T, 24 h) is under 1 µM; in test [2] (Homo sapiens, NCI-H226, 144 h) it was under 1 µM; in test [3] (Homo sapiens, NCI-H2052, 144 h), under 1 µM.

For the compound `C=CC(=O)NCC1CN(c2ccc(OC(F)(F)F)cc2)c2ccnn2C1` (stereo not drawn) [Cpd. No. 011, N-((4-(4-(trifluoromethoxy)phenyl)-4,5,6,7-tetrahydropyrazolo[1,5-a]pyrimidin-6-yl)methyl)acrylamide], the EC50 in test [1] (Homo sapiens, HEK-293T, 24 h) was under 1 µM; in test [2] (Homo sapiens, NCI-H226, 144 h) it was under 1 µM; in test [3], under 1 µM.

For the compound `C=CC(=O)NCC1CN(c2ccc(SC(F)(F)F)cc2)c2ccnn2C1` (single isomer, unassigned) [Cpd. No. 020-En1, (R)- or (S)-N-((4-(4-((trifluoromethyl)thio)phenyl)-4,5,6,7-tetrahydropyrazolo[1,5-a]pyrimidin-6-yl)methyl)acrylamide], the EC50 is under 1 µM in test [1]; under 1 µM in test [2]; under 1 µM in test [3] (Homo sapiens, NCI-H2052, 144 h).

With `C=CC(=O)NC1CN(c2ccc(C(F)(F)F)cc2)c2ccnn2C1` (stereo not drawn) [Cpd. No. 061, N-(4-(4-(trifluoromethyl)phenyl)-4,5,6,7-tetrahydropyrazolo[1,5-a]pyrimidin-6-yl)acrylamide], the EC50 in test [1] (Homo sapiens, HEK-293T, 24 h) was under 1 µM; in test [2] (Homo sapiens, NCI-H226, 144 h), under 1 µM; in test [3] (Homo sapiens, NCI-H2052, 144 h), under 1 µM.

On to `C=C(F)C(=O)NCC1CN(c2ccc(C(F)(F)F)cc2)c2ccnn2C1` (stereo not drawn) [Cpd. No. 039, 2-fluoro-N-((4-(4-(trifluoromethyl)phenyl)-4,5,6,7-tetrahydropyrazolo[1,5-a]pyrimidin-6-yl)methyl)acrylamide], for which the EC50 in test [1] (Homo sapiens, HEK-293T, 24 h) is under 1 µM; in test [2] (Homo sapiens, NCI-H226, 144 h), under 1 µM; in test [3] (Homo sapiens, NCI-H2052, 144 h), under 1 µM.

Take `C=CC(=O)NCC1CN(c2ccc(C(F)(F)F)cc2F)c2ccnn2C1` (stereo not drawn) [Cpd. No. 016, N-((4-(2-fluoro-4-(trifluoromethyl)phenyl)-4,5,6,7-tetrahydropyrazolo[1,5-a]pyrimidin-6-yl)methyl)acrylamide]: the EC50 in test [1] (Homo sapiens, HEK-293T, 24 h) was under 1 µM; in test [2] (Homo sapiens, NCI-H226, 144 h) it was under 1 µM; in test [3], under 1 µM.

As for `C=CC(=O)NCC1CN(c2ccc(C(F)(F)F)cn2)c2ccnn2C1` (single isomer, unassigned) [Cpd. No. 008-En2, (R)- or (S)-N-((4-(5-(trifluoromethyl)pyridin-2-yl)-4,5,6,7-tetrahydropyrazolo[1,5-a]pyrimidin-6-yl)methyl)acrylamide], the 50% effective concentration (EC50) in test [1], in test [2] and in test [3] was under 1 µM each time.

In the case of `C=C(C)C(=O)NCC1CN(c2ccc(C(F)(F)F)cc2)c2ccnn2C1` (stereo not drawn) [Cpd. No. 040, N-((4-(4-(trifluoromethyl)phenyl)-4,5,6,7-tetrahydropyrazolo[1,5-a]pyrimidin-6-yl)methyl)methacrylamide], the EC50 in test [1] (Homo sapiens, HEK-293T, 24 h) is under 1 µM; in test [2] (Homo sapiens, NCI-H226, 144 h) it was under 1 µM; in test [3] (Homo sapiens, NCI-H2052, 144 h), over 10 µM.

Turning to `C=CC(=O)NCC1CN(c2ccc(Cl)cc2)c2ccnn2C1` (stereo not drawn) [Cpd. No. 005, N-((4-(4-chlorophenyl)-4,5,6,7-tetrahydropyrazolo[1,5-a]pyrimidin-6-yl)methyl)acrylamide], the EC50 in test [1] (Homo sapiens, HEK-293T, 24 h) is under 1 µM; in test [2] (Homo sapiens, NCI-H226, 144 h), under 1 µM; in test [3] (Homo sapiens, NCI-H2052, 144 h), under 1 µM.

For the compound `C=CC(=O)NCC1CN(c2ccc(OC(F)(F)F)cc2F)c2ccnn2C1` (single isomer, unassigned) [Cpd. No. 019-En1, (R)- or (S)-N-((4-(2-fluoro-4-(trifluoromethoxy)phenyl)-4,5,6,7-tetrahydropyrazolo[1,5-a]pyrimidin-6-yl)methyl)acrylamide], the EC50 is under 1 µM in test [1] (Homo sapiens, HEK-293T, 24 h); under 1 µM in test [2] (Homo sapiens, NCI-H226, 144 h); under 1 µM in test [3].

`C=CC(=O)NCC1CN(c2ccc(C(F)(F)F)cc2)c2cc(CC3CC3)nn2C1` (stereo not drawn) [Cpd. No. 032, N-((2-(cyclopropylmethyl)-4-(4-(trifluoromethyl)phenyl)-4,5,6,7-tetrahydropyrazolo[1,5-a]pyrimidin-6-yl)methyl)acrylamide]: the EC50 in test [1] (Homo sapiens, HEK-293T, 24 h) is under 1 µM; in test [2] (Homo sapiens, NCI-H226, 144 h), under 1 µM; in test [3] (Homo sapiens, NCI-H2052, 144 h), under 1 µM.

`C=CC(=O)NCC1Cc2nn(Cc3cccc(C(N)=O)c3)cc2N(c2ccc(C(F)(F)F)cc2)C1` (stereo not drawn) [Cpd. No. 081, 3-((6-(acrylamidomethyl)-4-(4-(trifluoromethyl)-phenyl)-4,5,6,7-tetrahydro-2H-pyrazolo[4,3-b]pyridin-2-yl)methyl)benzamide]: the EC50 in test [1] (Homo sapiens, HEK-293T, 24 h) was under 1 µM; in test [2] (Homo sapiens, NCI-H226, 144 h), under 1 µM; in test [3] (Homo sapiens, NCI-H2052, 144 h), under 1 µM.
